Target: human indolethylamine-N-methyltransferase (hINMT) (Homo sapiens, UniProt O95050)
Experiment: radiometric […]SAM methyltransferase assay, pure hINMT
Format: biochemical

Sequence of human indolethylamine-N-methyltransferase (hINMT) (O95050 whole entry): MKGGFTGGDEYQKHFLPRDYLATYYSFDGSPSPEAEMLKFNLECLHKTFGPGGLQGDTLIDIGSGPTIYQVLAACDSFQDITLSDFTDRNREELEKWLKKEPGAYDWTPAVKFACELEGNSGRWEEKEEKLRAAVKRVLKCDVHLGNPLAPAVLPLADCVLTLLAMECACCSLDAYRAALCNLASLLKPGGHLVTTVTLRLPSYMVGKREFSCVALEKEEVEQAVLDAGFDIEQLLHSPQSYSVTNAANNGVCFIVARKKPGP

CN(C)CCCNCCc1c[nH]c2ccccc12 [PDAT, N-[2-(1H-indol-3-yl)ethyl]-N′,N′-dimethylpropane-1,3-diamine] showed an IC50 of roughly 1000 µM.
